Laboratory results reported in PubChem BioAssay (NCI).
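Five concentrations, 48 hours, 96-well plates. GI50 = concentration required for 50% inhibition of growth. TGI denotes the concentration required for complete inhibition of growth.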

What was measured:
Test in all cases: inhibition of tumour cell growth, NCI panel, 48 h
[1] = tested on: NCI-H522 lung
[2] = tested on: MCF7 breast
[3] = tested on: SK-OV-3 ovarian
[4] = tested on: SF-295 CNS
[5] = tested on: NCI-H226 lung
[6] = tested on: NCI-H460 lung
[7] = tested on: NCI/ADR-RES ovarian
[8] = tested on: MOLT-4 leukemia
[9] = tested on: SF-268 CNS
[10] = tested on: HL-60(TB) leukemia
[11] = tested on: T-47D breast
[12] = tested on: OVCAR-3 ovarian
[13] = tested on: SNB-75 CNS
[14] = tested on: DU-145 prostate
[15] = tested on: SK-MEL-28 melanoma
[16] = tested on: HCT-15 colon
[17] = tested on: A549 NSCLC
[18] = tested on: SN12C renal
[19] = tested on: HOP-92 NSCLC
[20] = tested on: M14 melanoma
[21] = tested on: SNB-19 CNS
[22] = tested on: COLO 205 colon
[23] = tested on: MALME-3M melanoma
[24] = tested on: SW-620 colon
[25] = tested on: SR leukemia
[26] = tested on: NCI-H23 lung
[27] = tested on: KM12 colon
[28] = tested on: MDA-MB-231 breast
[29] = tested on: TK-10 renal
[30] = tested on: OVCAR-5 ovarian
[31] = tested on: UACC-62 melanoma
[32] = tested on: RPMI-8226 leukemia
[33] = tested on: A498 renal
[34] = tested on: OVCAR-8 ovarian
[35] = tested on: CCRF-CEM leukemia
[36] = tested on: BT-549 breast
[37] = tested on: OVCAR-4 ovarian
[38] = tested on: HCT-116 colon
[39] = tested on: MDA-MB-435
[40] = tested on: CAKI-1 renal
[41] = tested on: SK-MEL-2 melanoma
[42] = tested on: HOP-62 NSCLC
[43] = tested on: UO-31 renal
[44] = tested on: HCC-2998 colon
[45] = tested on: HS 578T breast
[46] = tested on: UACC-257 melanoma
[47] = tested on: 786-0 renal
[48] = tested on: K-562 leukemia
[49] = tested on: IGROV1 ovarian
[50] = tested on: EKVX NSCLC
[51] = tested on: SF-539 CNS
[52] = tested on: PC-3 prostate
[53] = tested on: SK-MEL-5 melanoma
[54] = tested on: ACHN renal
[55] = tested on: HT29 colon
[56] = tested on: LOX IMVI melanoma
[57] = tested on: RXF 393 renal
[58] = tested on: U251 CNS

Q: What does the source list for COc1cc(CNCCCN2C(=O)c3ccc4c5c(ccc(c35)C2=O)C(=O)N(CCCNCc2cc(OC)c(OC)c(OC)c2)C4=O)cc(OC)c1OC?
A: GI50 [1]: 0.409 µM; TGI [1]: 1.14 µM; GI50 [2]: 0.242 µM; TGI [2]: 0.643 µM; GI50 [3]: 1.01 µM; TGI [3]: 2.65 µM; GI50 [4]: 0.517 µM; TGI [4]: 1.55 µM; GI50 [5]: 0.814 µM; TGI [5]: 2 µM; GI50 [6]: 0.316 µM; TGI [6]: 1.04 µM; GI50 [7]: 9.16 µM; TGI [7]: 39 µM; GI50 [8]: 0.147 µM; TGI [8]: 0.6 µM; GI50 [9]: 0.542 µM; TGI [9]: 2.27 µM; GI50 [10]: 0.919 µM; TGI [10]: 1.97 µM; GI50 [11]: 0.38 µM; TGI [11]: 1.12 µM; GI50 [12]: 0.143 µM; TGI [12]: 0.382 µM; GI50 [13]: 0.589 µM; TGI [13]: 1.33 µM; GI50 [14]: 0.436 µM; TGI [14]: 1.11 µM; GI50 [15]: 0.841 µM; TGI [15]: 1.57 µM; GI50 [16]: 1.18 µM; TGI [16]: 3.55 µM; GI50 [17]: 0.305 µM; TGI [17]: 0.977 µM; GI50 [18]: 0.227 µM; TGI [18]: 0.475 µM; GI50 [19]: 1.02 µM; TGI [19]: 2.49 µM; GI50 [20]: 0.841 µM; TGI [20]: 1.6 µM; GI50 [21]: 0.398 µM; TGI [21]: 1.25 µM; GI50 [22]: 0.139 µM; TGI [22]: 0.352 µM; GI50 [23]: 0.334 µM; TGI [23]: 1.02 µM; GI50 [24]: 0.203 µM; TGI [24]: 0.785 µM; GI50 [25]: 0.18 µM; TGI [25]: 1.62 µM; GI50 [26]: 0.35 µM; TGI [26]: 1.22 µM; GI50 [27]: 0.238 µM; TGI [27]: 0.834 µM; GI50 [28]: 0.252 µM; TGI [28]: 2.27 µM; GI50 [29]: 0.416 µM; TGI [29]: 1.32 µM; GI50 [30]: 0.801 µM; TGI [30]: 2.79 µM; GI50 [31]: 0.793 µM; TGI [31]: 1.57 µM; GI50 [32]: 0.523 µM; TGI [32]: 2.34 µM; GI50 [33]: 0.627 µM; TGI [33]: 1.41 µM; GI50 [34]: 0.272 µM; TGI [34]: 0.959 µM; GI50 [35]: 0.3 µM; TGI [35]: 4.07 µM; GI50 [36]: 0.852 µM; TGI [36]: 1.77 µM; GI50 [37]: 0.0751 µM; TGI [37]: 0.149 µM; GI50 [38]: 0.133 µM; TGI [38]: 0.41 µM; GI50 [39]: 0.367 µM; TGI [39]: 1.11 µM; GI50 [40]: 3.28 µM; TGI [40]: 9.64 µM; GI50 [41]: 0.562 µM; TGI [41]: 1.52 µM; GI50 [42]: 0.477 µM; TGI [42]: 1.32 µM; GI50 [43]: 2.91 µM; TGI [43]: 9.48 µM; GI50 [44]: 0.363 µM; TGI [44]: 0.915 µM; GI50 [45]: 1.2 µM; TGI [45]: 3.76 µM; GI50 [46]: 0.283 µM; TGI [46]: 0.541 µM; GI50 [47]: 0.944 µM; TGI [47]: 2.39 µM; GI50 [48]: 0.309 µM; TGI [48]: 2.85 µM; GI50 [49]: 0.24 µM; TGI [49]: 1.06 µM; GI50 [50]: 0.543 µM; TGI [50]: 1.35 µM; GI50 [51]: 0.653 µM; TGI [51]: 1.39 µM; GI50 [52]: 0.387 µM; TGI [52]: 1.57 µM; GI50 [53]: 0.39 µM; TGI [53]: 1.03 µM; GI50 [54]: 0.841 µM; TGI [54]: 3.17 µM; GI50 [55]: 0.163 µM; TGI [55]: 0.933 µM; GI50 [56]: 0.14 µM; TGI [56]: 0.525 µM; GI50 [57]: 0.35 µM; TGI [57]: 0.99 µM; GI50 [58]: 0.257 µM; TGI [58]: 0.93 µM

Q: How did the TGI [1] turn out when CC(C)=C1C(=O)C[C@]2(C)C[C@H]3/C(=C(/C)CCC12)CC[C@@]3(C)O (some centres not stated) was run?
A: Its TGI is greater than 50 µM.

Q: And the TGI [2]?
A: The TGI was greater than 50 µM.

Q: And the TGI [3]?
A: Its TGI is greater than 50 µM.

Q: And the TGI [4]?
A: The TGI was greater than 50 µM.

Q: What about the TGI [5] of the same compound?
A: The TGI was greater than 50 µM.

Q: And the TGI [7]?
A: Its TGI is greater than 50 µM.

Q: And the TGI [8]?
A: Its TGI is greater than 50 µM.

Q: And the TGI [9]?
A: Its TGI is greater than 50 µM.

Q: What about the TGI [10] of the same compound?
A: Its TGI is 28.6 µM.

Q: And the TGI [11]?
A: Its TGI is greater than 50 µM.

Q: And the TGI [12]?
A: The TGI was greater than 50 µM.

Q: What about the TGI [13] of the same compound?
A: Its TGI is greater than 50 µM.

Q: And the TGI [14]?
A: The TGI was greater than 50 µM.

Q: And the TGI [15]?
A: The TGI was greater than 50 µM.

Q: And the TGI [16]?
A: The TGI was greater than 50 µM.

Q: What about the TGI [17] of the same compound?
A: The TGI was greater than 50 µM.

Q: And the TGI [18]?
A: Its TGI is greater than 50 µM.

Q: And the TGI [19]?
A: Its TGI is greater than 50 µM.

Q: And the TGI [20]?
A: The TGI was greater than 50 µM.

Q: And the TGI [21]?
A: The TGI was greater than 50 µM.

Q: And the TGI [22]?
A: The TGI was greater than 50 µM.

Q: What about the TGI [24] of the same compound?
A: The TGI was greater than 50 µM.

Q: And the TGI [25]?
A: The TGI was greater than 50 µM.

Q: What about the TGI [26] of the same compound?
A: Its TGI is greater than 50 µM.

Q: What about the TGI [27] of the same compound?
A: The TGI was greater than 50 µM.

Q: What about the TGI [28] of the same compound?
A: Its TGI is greater than 50 µM.

Q: What about the TGI [29] of the same compound?
A: Its TGI is greater than 50 µM.

Q: What about the TGI [30] of the same compound?
A: Its TGI is greater than 50 µM.

Q: And the TGI [31]?
A: Its TGI is greater than 50 µM.

Q: And the TGI [32]?
A: Its TGI is greater than 50 µM.

Q: And the TGI [33]?
A: The TGI was greater than 50 µM.

Q: And the TGI [34]?
A: Its TGI is greater than 50 µM.

Q: And the TGI [35]?
A: The TGI was greater than 50 µM.

Q: And the TGI [36]?
A: Its TGI is greater than 50 µM.

Q: And the TGI [37]?
A: The TGI was greater than 50 µM.

Q: And the TGI [38]?
A: Its TGI is greater than 50 µM.

Q: What about the TGI [39] of the same compound?
A: The TGI was greater than 50 µM.

Q: What about the TGI [40] of the same compound?
A: The TGI was greater than 50 µM.

Q: What about the TGI [41] of the same compound?
A: Its TGI is greater than 50 µM.

Q: What about the TGI [42] of the same compound?
A: Its TGI is greater than 50 µM.

Q: And the TGI [43]?
A: The TGI was greater than 50 µM.

Q: What about the TGI [44] of the same compound?
A: The TGI was greater than 50 µM.

Q: And the TGI [45]?
A: Its TGI is greater than 50 µM.

Q: And the TGI [46]?
A: The TGI was greater than 50 µM.

Q: And the TGI [47]?
A: Its TGI is greater than 50 µM.

Q: What about the TGI [48] of the same compound?
A: The TGI was greater than 50 µM.

Q: What about the TGI [49] of the same compound?
A: Its TGI is greater than 50 µM.

Q: And the TGI [50]?
A: Its TGI is greater than 50 µM.

Q: What about the TGI [51] of the same compound?
A: Its TGI is greater than 50 µM.

Q: And the TGI [52]?
A: The TGI was greater than 50 µM.

Q: What about the TGI [53] of the same compound?
A: Its TGI is greater than 50 µM.

Q: And the TGI [54]?
A: The TGI was greater than 50 µM.

Q: And the TGI [55]?
A: Its TGI is greater than 50 µM.

Q: And the TGI [56]?
A: The TGI was greater than 50 µM.

Q: What about the TGI [57] of the same compound?
A: The TGI was greater than 50 µM.

Q: And the TGI [58]?
A: The TGI was greater than 50 µM.
